Consider 15 compounds from US8163901B2, “Amide derivatives as ion-channel ligands and pharmaceutical compositions and methods of using the same” (Evotec AG, priority 2008, dated 2012).

Molecules are shown by their SMILES.

What all share (format): cell-based
The target of assay [1] is T1, hVR1 (Homo sapiens, UniProt Q8NER1).
T1 construct: R710-07 (T-REx host cell line); host or cells: T-REx System cell line, called 'human keratinocyte cell line' and 'HEK 293 cells'
In words: Calcium uptake assay (FLIPR), inhibition of capsaicin-induced calcium influx. The method, then:
(§1) Functional activity of compounds against the VR1 receptor was determined by measuring changes in intracellular calcium in HEK 293 cells expressing hVR1. Compounds were examined for their ability to inhibit agonist-induced calcium influx. Relative levels of [Ca^2+] were monitored in a 96-well format using a calcium-sensitive fluorescence dye and a FLIPR TETRA, Molecular Devices.
(§2) Cells that express high levels of VR1 were obtained by generation of a cell line from human keratinocytes with heterologous expression of VR1 under control of an inducible promoter. Specifically, cells expressing human VR1 under the control of the human cytomegalovirus immediate-early (CMV) promoter and two tetracycline operator 2 (TetO2) sites were made using the T-REx System (Invitrogen, Carlsbad, Calif., USA). Details and methods concerning this system are published (Hum. Gene Ther. 9, pp. 1939-1950, 1998; Annu. Rev. Microbiol. 48, pp. 345-369, 1994; Mol. Biol. 169, pp. 707-'721, 1983). Human VR1 was subcloned into the T-REx System pcDNA5/TO vector (Invitrogen Cat# V1033-20) which was transfected into the T-REx System human keratinocyte cell line (Invitrogen Cat# R710-07) from which a stable cell line was established which expresses VR1 after induction by exposure to tetracycline or doxycycline (Hum. Gene Ther. 9, pp. 1939-1950, 1998; instructions that come with purchase of products noted above). Cells were maintained in a CO2 incubator (5% CO2) at 37° C. in culture medium containing DMEM with phenol red (Mediatech Cat #: 15-017-CV) supplemented with 10% heat-inactivated Fetal Bovine Serum, 5% Penicillin-streptomycin (Mediatech Cat #: 30-002-CI), 5% Glutamax® (L-Alanyl-L-Glutamine, Mediatech Cat #: 25-015-CI), 200 μg/ml hygromycin (Mediatech #:30-240-CR), 0.5 μg/ml blasticidin (Invitrogen #46-1120)).
(§3) For assay preparation, cells expressing human VR1 as described above were plated in 96-well plates (Becton Dickinson [BD] poly-D-lysine coated 96-well plates, cat #356692) at 55,000 cells per well in culture media (described above) that also contained 1 ug/ml doxycycline. Plated cells were then placed in an incubator (5% CO2) and incubated for 20-26 hours at 37° C., until the cells had grown to near confluency. Media was then aspirated from cells and 50 uL of dye-containing buffer (from Molecular Devices FLIPR Calcium 4 Assay kit, cat# R8141) was added to each well. Cells were then left in the dark at room temperature for 1.5-2 hours. Cell plates were then placed in the FLIPR TETRA (Molecular Devices, CA, USA). Test compounds and agonists were added to wells using the liquid handling capability of the FLIPR TETRA. Calcium responses of the cells were monitored by fluorescence readout of dye signal. Test compounds in saline (130 mM NaCl, 17 g/L sucrose, 1.8 g/L glucose, 8.8 mM HEPES, 3 mM KCl, 0.60 mM MgCl, 1.0 mM CaCl2; adjust to pH 7.4 using NaOH; 0.03% BSA added on the day of the experiment), or vehicle control in saline, were pre-incubated at the desired final concentrations in the dark at room temperature for 2 or 30 minutes with cells already containing the above mentioned dye buffer (dye solution was diluted 1:1 in culture wells with saline containing 2× the final concentration of test compound). […] Another agonist was protons via a low pH solution (saline solution described above plus 10 mM citric acid buffered to pH 5.7 with HCl instead of buffering to a neutral pH with NaOH as done for normal saline). Compounds were tested at various concentration ranges, depending upon potency of compound. After the 2 minute or 30 minute compound pre-treatment, treatment solution was then added to cells by adding a volume of treatment solution equal to the pretreatment solution already on the cells.

Assay [2] concerns the target T1, hVR1. In words: Calcium uptake assay (FLIPR), inhibition of low pH (proton)-induced calcium influx. Particulars: agonist protons, low pH solution pH 5.7; cells expressing hVR1. Here is the method:
as §1, §2
as §3, with “compound). Compound IC50 experiments were run using an agonist concentration at or near the EC50 of the agonist.” for “compound).”, “cells. […]” for “cells.”

Assay [3] concerns the target T1, hVR1. In words: Determination of pA2 values against capsaicin stimulation (Ca2+ imaging, Schild analysis). The method, then:
Changes in the fluorescence signal (λex=470-495 nm, λem=515-575 nm) are monitored throughout the experiment before agonist addition and for at least 2 min after agonist addition (enough time for the fluorescence response to reach and then decline from the absolute maximum, agonist-induced signal attained). For each well, final relative fluorescence units (RFUs) are calculated as the difference between the maximum fluorescence signal obtained in the experiment after agonist addition and the signal level seen at baseline before agonist, but after antagonist, addition (the absolute minimum level of fluorescence signal observed in the 10 seconds prior to agonist addition). […] Data are fit to an ideal curve utilizing the 4-parameter sigmoid curve-fit function in GraphPad Prism software (version 4, GraphPad Software, Inc., San Diego, Calif., USA) from which an EC50 value is obtained. […] For each antagonist, at least three concentrations are tested. Dose Ratio values are then used to make a standard Schild plot—log [antagonist concentration] plotted against log [DR−1], see Kenakin reference above for theoretical background and method. A linear regression curve-fit is then performed on these plotted points. […] If these conditions are not met, then the antagonist is rerun in a pA2 assay using different antagonist concentrations until the above conditions are met.

T1 sequence (Q8NER1 whole entry): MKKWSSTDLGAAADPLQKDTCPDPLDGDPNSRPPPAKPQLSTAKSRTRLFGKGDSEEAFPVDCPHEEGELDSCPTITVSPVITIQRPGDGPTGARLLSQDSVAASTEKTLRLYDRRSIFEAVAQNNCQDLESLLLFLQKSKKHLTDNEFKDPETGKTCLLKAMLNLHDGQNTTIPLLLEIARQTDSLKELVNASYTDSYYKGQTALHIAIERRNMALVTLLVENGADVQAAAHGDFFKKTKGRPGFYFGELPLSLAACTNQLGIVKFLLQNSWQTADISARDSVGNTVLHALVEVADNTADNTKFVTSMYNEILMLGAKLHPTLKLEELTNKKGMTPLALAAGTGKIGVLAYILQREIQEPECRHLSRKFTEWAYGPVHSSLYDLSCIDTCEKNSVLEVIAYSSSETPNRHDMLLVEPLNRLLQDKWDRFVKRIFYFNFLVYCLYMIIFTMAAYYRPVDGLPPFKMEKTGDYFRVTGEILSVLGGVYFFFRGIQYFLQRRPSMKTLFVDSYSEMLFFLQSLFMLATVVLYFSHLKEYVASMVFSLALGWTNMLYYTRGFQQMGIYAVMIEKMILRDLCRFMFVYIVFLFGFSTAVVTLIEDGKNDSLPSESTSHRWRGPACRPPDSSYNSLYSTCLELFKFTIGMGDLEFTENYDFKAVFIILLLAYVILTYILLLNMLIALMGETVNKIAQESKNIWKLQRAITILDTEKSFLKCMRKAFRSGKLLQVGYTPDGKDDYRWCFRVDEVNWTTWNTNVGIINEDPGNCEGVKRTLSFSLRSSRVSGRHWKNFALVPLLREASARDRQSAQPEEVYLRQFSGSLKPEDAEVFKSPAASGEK

For `CC(NC(=O)C1CN(C)c2cc(C(F)(F)F)ccc2O1)c1ccc2[nH]ncc2c1` (mixture of isomers) [Compound 9, 4-Methyl-6-trifluoromethyl-3,4-dihydro-2H-benzo[1,4]oxazine-2-carboxylic acid [1-(1H-indazol-5-yl)ethyl]amide], the IC50 on hVR1 [1] was found to be 42 nM; at hVR1 [2], 117 nM. This compound also gave a Kb at hVR1 [3] of 34.7 nM.
The like results for `CC(NC(=O)[C@H]1COc2cc(C(C)(C)C)ccc2O1)c1ccc2[nH]ncc2c1` (single isomer, unassigned) [Compound 7] were, in that order, 29 nM, 226 nM and 16.1 nM.
For `CC(C)(c1ccc2c(n1)CC[C@@H](C(=O)Nc1cnc3c(c1)COCC3)C2)C(F)(F)F` (single isomer, unassigned) [Compound 18] the same measures were 6 nM, 18 nM and 32 nM.
For `CC(C)(c1ccc2c(n1)CC[C@H](C(=O)Nc1cnc3c(c1)COCC3)C2)C(F)(F)F` (single isomer, unassigned) [Compound 19] the same measures were 9 nM, 67 nM and 17 nM.
Regarding `CC(C)(C)c1ccc2c(c1)OCC(C(=O)NCc1ccnc3ccccc13)O2` (centres unmarked) [Compound 1, 6-tert-butyl-N-(quinolin-4-ylmethyl)-2,3-dihydrobenzo[b][1,4]dioxine-2-carboxamide], the IC50 at hVR1 [1] amounted to 36 nM; on hVR1 [2] it was 240 nM.
Turning to `O=C(NCc1ccnc2ccccc12)C1=Cc2cc(Cl)ccc2OC1` [Compound 2, 6-Chloro-2H-chromene-3-carboxylic acid (Quinolin-4-ylmethyl)-amide], the IC50 at hVR1 [2] came to 143 nM.
Same read-out and setting: in the case of `O=C(NCc1ccnc2ccccc12)C1=Cc2cc(Br)ccc2OC1` [Compound 3, 6-Bromo-2H-chromene-3-carboxylic acid (quinolin-4-ylmethyl)-amide] it was 128 nM; in that of `O=C(NCc1ccnc2ccccc12)C1=Cc2cc(OC(F)(F)F)ccc2OC1` [Compound 4, 6-Trifluoromethoxy-2H-chromene-3-carboxylic acid (quinolin-4-ylmethyl)-amide], 108 nM.
Regarding `CC(C)(C)c1ccc2c(c1)OC(C(=O)Nc1cnc3sc(CO)nc3c1)CO2` (centres unmarked) [Compound 8, 7-tert-Butyl-2,3-dihydro-benzo[1,4]dioxine-2-carboxylic acid (2-hydroxymethyl-thiazolo[5,4-b]pyridin-6-yl)-amide], at hVR1 [2], the IC50 turned out to be 8 nM. This compound also had a Kb on hVR1 [3] of 14.5 nM.
`C[C@@H](NC(=O)[C@@H]1CCc2nc(C(C)(C)C(F)(F)F)ccc2C1)c1ccc2[nH]ncc2c1` [Compound 11, (R)-2-(2,2,2-Trifluoro-1,1-dimethyl-ethyl)-5,6,7,8-tetrahydro-quinoline-6-carboxylic acid [(R)-1-(1H-indazol-5-yl)-ethyl]-amide]: the IC50 turned out to be 9 nM on hVR1 [1] and 23 nM on hVR1 [2]. Moreover, at hVR1 [3], the Kb is 1.79 nM.
In the case of `C[C@@H](NC(=O)[C@H]1CCc2nc(C(C)(C)C(F)(F)F)ccc2C1)c1ccc2[nH]ncc2c1` [Compound 12, (S)-2-(2,2,2-Trifluoro-1,1-dimethyl-ethyl)-5,6,7,8-tetrahydro-quinoline-6-carboxylic acid [(R)-1-(1H-indazol-5-yl)-ethyl]-amide], the IC50 was 2 nM on hVR1 [1] and 6 nM on hVR1 [2]. Also, the Kb at hVR1 [3] was 0.208 nM.
The like results for `CC(C)(c1ccc2c(n1)CC[C@@H](C(=O)Nc1cnc3sc(CO)nc3c1)C2)C(F)(F)F` [Compound 15, (R)-2-(2,2,2-Trifluoro-1,1-dimethyl-ethyl)-5,6,7,8-tetrahydro-quinoline-6-carboxylic acid (2-hydroxymethyl-thiazolo[5,4-b]pyridin-6-yl)-amide] were, in that order, 19 nM, 18 nM and 5.05 nM.
Turning to `O=C(Nc1cnc2sc(CO)nc2c1)[C@H]1COc2cc(C(F)(F)F)ccc2O1` [Compound 16, (R)-6-Trifluoromethyl-2,3-dihydro-benzo[1,4]dioxine-2-carboxylic acid (2-hydroxymethyl-thiazolo[5,4-b]pyridin-6-yl)-amide], the IC50 at hVR1 [2] amounted to 571 nM. The Kb at hVR1 [3] is 422 nM.
As to `CC(C)(c1ccc2c(n1)CC[C@@H](C(=O)Nc1cnc3ccccc3c1)C2)C(F)(F)F` [Compound 21, (R)-2-(2,2,2-Trifluoro-1,1-dimethyl-ethyl)-5,6,7,8-tetrahydro-quinoline-6-carboxylic acid quinolin-3-ylamide], the IC50 was determined as 33 nM at hVR1 [1] and 40 nM at hVR1 [2]. For the same compound, the Kb at hVR1 [3] was 22.9 nM.
As to `CC1(C(=O)Nc2cnc3sc(CO)nc3c2)CCc2nc(C(C)(C)C(F)(F)F)ccc2C1` (centres unmarked) [Compound 24, 6-Methyl-2-(2,2,2-trifluoro-1,1-dimethyl-ethyl)-5,6,7,8-tetrahydro-quinoline-6-carboxylic acid (2-hydroxymethyl-thiazolo[5,4-b]pyridin-6-yl)-amide], the IC50 at hVR1 [2] was 121 nM. At hVR1 [3], this compound had a Kb of 69.2 nM.
